These results are taken from patent US5989846A, “Assays to identify inducers of plant defense resistance” (Rutgers, The State University of New Jersey, priority 1995, dated 1999).

By inhibition is commonly meant the share of the control response that was lost under treatment.

In one experiment the target is T1, bovine catalase (Bos taurus, UniProt P00432).
T1 sequence (P00432 2-527 limits assumed): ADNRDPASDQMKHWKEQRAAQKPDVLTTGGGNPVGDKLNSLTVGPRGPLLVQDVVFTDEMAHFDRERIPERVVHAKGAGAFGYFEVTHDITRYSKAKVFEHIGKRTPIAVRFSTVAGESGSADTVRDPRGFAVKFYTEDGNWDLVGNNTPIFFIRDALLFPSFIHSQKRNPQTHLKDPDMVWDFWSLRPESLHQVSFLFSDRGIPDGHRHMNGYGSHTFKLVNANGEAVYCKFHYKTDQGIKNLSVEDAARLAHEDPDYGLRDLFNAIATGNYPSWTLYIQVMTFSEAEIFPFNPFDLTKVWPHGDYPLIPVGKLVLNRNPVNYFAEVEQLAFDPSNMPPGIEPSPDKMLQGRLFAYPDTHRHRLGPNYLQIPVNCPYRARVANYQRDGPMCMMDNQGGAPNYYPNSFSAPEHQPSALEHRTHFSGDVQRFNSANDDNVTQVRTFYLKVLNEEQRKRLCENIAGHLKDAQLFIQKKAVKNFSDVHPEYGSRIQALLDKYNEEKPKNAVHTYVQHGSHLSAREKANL
Particulars: Kirkman and Gaetani 1984; cited from earlier work.

The target in experiment [1] is T2, catalase activity of SABP (Nicotiana tabacum, UniProt P49319).
T2 sequence (P49319 1-492): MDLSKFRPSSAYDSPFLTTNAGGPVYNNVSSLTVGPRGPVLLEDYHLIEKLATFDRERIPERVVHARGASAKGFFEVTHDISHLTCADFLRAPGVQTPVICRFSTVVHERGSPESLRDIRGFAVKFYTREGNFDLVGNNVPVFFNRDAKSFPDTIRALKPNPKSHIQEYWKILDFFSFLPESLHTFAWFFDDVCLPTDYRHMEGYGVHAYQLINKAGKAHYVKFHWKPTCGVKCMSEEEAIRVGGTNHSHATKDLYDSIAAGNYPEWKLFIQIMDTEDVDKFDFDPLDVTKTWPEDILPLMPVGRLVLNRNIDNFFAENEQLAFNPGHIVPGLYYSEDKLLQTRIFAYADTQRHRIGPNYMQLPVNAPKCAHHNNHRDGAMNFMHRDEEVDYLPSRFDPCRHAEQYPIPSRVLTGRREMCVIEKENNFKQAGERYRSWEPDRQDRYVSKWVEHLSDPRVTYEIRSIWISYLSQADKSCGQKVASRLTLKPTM
Put plainly: Catalase activity of highly purified SABP (luminol method). It counts as biochemical, tobacco. Particulars: 0.05 h; 1 mM SA or analogue, 1 mM H2O2, 500 ng highly purified SABP. On the procedure: Aliquots (50 μl) were removed from the assay mixture at 30 second intervals to assay for amount of H2 O2 remaining using the luminol method as has been described by Warm and Laties, Phytochem. […] The tube was placed in the measuring chamber and assay was initiated with automatic injection into the mixture of 100 μl of 0.5 mM K3 Fe(CN)6 in 0.2N NH4 OH, pH 9.5. Measurements were integrated over 5 second periods. H2 O2 was calculated from the standard curve constructed with known amounts of H2 O2. Rate constants of SABP catalase activity in the presence or absence of SA or its analogues were then calculated based on a first-order mechanism.

Experiment [2] relates to resistance or PR gene expression. Also on record: key: ++: indicates a high level of biological activity; +: indicates a lower level of biological activity; ±: indicates low, but detectable biological activity in some assays; -: indicates no biological activity. Particulars: Table 3; values reported in literature; cited from earlier work.
For the next experiment, the system named is ascorbate peroxidase. Kind of experiment: Ascorbate peroxidase activity in tobacco leaf extracts. It counts as biochemical, Nicotiana tabacum cv. Xanthi nc. The following applies: 200 μM compound, corrected for quenching of auto oxidation. In outline: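 Soluble extracts from leaves of 6–8-week Nicotiana tabacum cv. Xanthi nc, desalted into 50 mM potassium phosphate pH 7 with 100 μM ascorbate, were assayed (30–50 μg protein) with or without 100 or 1000 μM SA or INA. Ascorbate oxidation followed as A290 decrease; means of three replicates.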

The next experiment deals with SABP. More on the design: concentration or dose not given beside the values. The following applies: Table 6; previously published data (Chen et al. 1993); cited from earlier work.
The test system of experiment [3] is salicylic acid binding protein. Put plainly: Competitive [14C] salicylic acid binding assay (spin-column). More on the design: species or system tobacco. Particulars: [14C] salicylic acid 20 μM. As for the experimental part:
The 180 kDa native binding protein isolated was tested for binding affinity and specificity. A competitive assay was established using salicylic acid binding protein fractionated from plants as previously described.
A key element during the characterization and the purification process is a simple, inexpensive, sensitive and reliable method for determining the salicylic acid binding activity. For this purpose, spin-column exclusion chromatography was used to separate the bound [^14 C] salicylic acid (excluded) from the bulk free salicylic acid (included). Specifically, a 1.5 ml Eppendorf tube was punctured at the tip with a 20-gauge needle and a small amount of glass wool was added to cover the small hole. The tube was then filled with Bio-Gel P-6DG desalting gel (exclusion limit 6 KDa; purchased from Bio-Rad, Melville, N.Y.) which have been swollen in water. An alternative gel is Sephadex G-25 fine (from Pharmacia, Piscataway, N.J.). Excess liquid in the gel was removed and centrifuged for 5 minutes at full speed in a Dynamic centrifuge (Becton Dickinson). The process was then repeated several times until the gel filled the tube. After incubation of an aliquot of the extract or column fractions for 2 hr at 4° C. with 5 μM-20 μM [^14 C salicylic acid] (specifically radioactivity 55 Ci/mol; purchased from New England Nuclear), 150 μl of proteins binding sample was loaded onto the tube column, which was then rapidly centrifuged for 2 minutes at full speed and the solution of proteins and bound [^14 C-salicylic acid] that was excluded from the gel was collected into another tube that had been placed under the tube column during the centrifugation. One hundred microliters of this solution was then used to determine the amount of bound salicylic acid. […] For example, to determine the inhibitory effect of various salicylic acid analogues on salicylic acid binding activity, these individual analogues were included in the binding mixture containing both the protein and [^14 C] salicylic acid during the 2 hr incubation, and resulting binding activity was determined in comparison to the activity in the absence of these analogues. Likewise, to determine the effect of pH and antioxidants on the binding activity the protein sample was either dialyzed against a large volume of buffers with different pH or antioxidants were added to the protein sample to various concentrations and the resulting binding activities were then determined with the spin-column method in comparison with the activity determined in the absence of these treatments.

A further experiment relates to H2 O2. Kind of experiment: Abundance of H2O2 in treated tobacco leaves. It counts as in vivo. The following applies: FIG. 11. From the text: The abundance of H2 O2 increased in SA- or 3AT-treated tobacco leaves by 50-60% over the control levels observed in water-treated leaves. […] Thus, elevated levels of H2 O2, and in turn, enhanced oxidative stress in vivo, were consistent with inhibition of catalase activity by SA observed in vitro.

Take `NC(=O)C1=CN([C@@H]2O[C@H](COP(=O)(O)OP(=O)(O)OC[C@H]3O[C@@H](n4cnc5c(N)ncnc54)[C@H](OP(=O)(O)O)[C@@H]3O)[C@@H](O)[C@H]2O)C=CC1` [NADPH, nicotinamide adenine dinucleotide phosphate]: at bovine catalase, the “Binding to bovine catalase” value is “tightly binds”.

On to `O=C(O)c1cccc(O)c1` [3-Hydroxybenzoic acid], for which the inhibition at 1000 µM in experiment [1] came to 3.1%. In experiment [2], the Biological activity result is “-”. Also, the “% Inhibition of ascorbate peroxidase” value with ascorbate peroxidase is reported as 28 ± 7%. Moreover, in the experiment on SABP, the “Inhibition (%) [14C]SA binding” value is given as 1%. Moreover, the “Inhibition (%) 2×” value in experiment [3] (40 μM (2×) unlabeled competitor) is on record as -2%. Also, the “Inhibition (%) 10×” value in experiment [3] (200 μM (10×) unlabeled competitor) was 0%. In the experiment on H2 O2, the “Increase in abundance of H2O2 over water-treated leaves” value is listed as “unable to enhance”.

`NC(=O)C1=CN([C@@H]2O[C@H](COP(=O)(O)OP(=O)(O)OC[C@H]3O[C@@H](n4cnc5c(N)ncnc54)[C@H](O)[C@@H]3O)[C@@H](O)[C@H]2O)C=CC1` [NADH, nicotinamide adenine dinucleotide]: the “Binding to bovine catalase” value at bovine catalase is listed as “tightly binds”.
